Measurements reported in patent US9724337B2, “AG-205 for the treatment of breast cancer” (University of Kentucky Research Foundation, priority 2009, dated 2017).

Assays:
MDA-MB-468 cells = test: Viability / proliferation of MDA-MB-468 cells; type: cell-based, human; conditions: MDA-MB-468 cells, increasing doses of AG1478, MTT assay
Experimental: (§1) Tissue culture. MDA-MB-468 cells were a kind gift from Dr. Rina Plattner of the University of Kentucky and were maintained in medium consisting of Dulbecco's Modified Eagle Medium containing 10% serum supreme (Fisher) and antibiotics. Cells were grown at 37° C. in 5% CO2 in air. A549 and HCC827 lung cancer cells, as well as SK-Br-3 breast cancer cells were obtained from the ATCC (American Type Culture Collection) and were grown under the same conditions. The H1650 lung cancer cell line was a kind gift from Dr. Heinz Kohler of the University of Kentucky. The Pgrmc1 ligand AG-205 was purchased from Timtec, Inc. The EGFR inhibitor AG1478 was from Biomol, Inc. and was used at a concentration range of 0.8-40 μM.
(§2) Proliferation, anchorage-independent growth and migration assays. For growth curves, cells were plated in 24 well dishes and grown in 10% serum-containing medium. At various times, the cells were harvested with trypsin and fixed with formaldehyde added to a final concentration of 3.7%. Following the harvest of the final time point, the cells from each time point were counted using a Bright-line hemocytometer (Hausser Scientific).
(§3) MTT viability assays were performed as described previously. Briefly, cells were plated in 96-well tissue culture dishes and grown in various media with different drug doses. The cells were then incubated with 0.5 mg/ml of 3-[4,5-dimethylthiazol-2-y]-2,5-diphenyltetrazolium bromide for 1.5 hours, at which time the media was removed, the precipitated crystals were dissolved in dimethyl sulfoxide, and the absorbance at 590 nm was measured using a Bio-Tek μQuant spectrophotometer.

A549 cells = test: Viability of A549 cells; type: cell-based, human; conditions: A549 cells, single agent
Experimental: (A) Pgrmc1 (SEQ ID NO: 7) shares homology with AtMAPR2 (SEQ ID NO: 8) (underlined residues), which was the target for a screen for small molecule ligands. The putative heme-binding Tyr106 and Tyr112 are indicated with black boxes. (B) The molecular structure of AG-205 includes multiple aromatic components. (C) Spectroscopic scan of Pgrmc1 with vehicle control compared with vehicle plus 50 µM AG-205. The decrease in relative absorbance at 400 nm is consistent with an AG-205-induced change in the spectral properties of Pgrmc1-heme. The scan is representative of four separate scans using different Pgrmc1 protein preparations. The lower scan is a comparison of purified Pgrmc1 without and with the vehicle control (DMSO). Panels D (A549 cells) and E (MDA-MB-231 cells) are viability assays of cells maintained in 0.1% serum (solid line) or 10% serum (dashed line) and treated with increasing doses of AG-205. Percent viability was determined by cell counting, and “% viability” refers to the cell number relative to the untreated control.
as §1, §2, §3

Question: Which results are given for COc1cc2ncnc(Nc3cccc(Cl)c3)c2cc1OC [AG1478, reference compound]?
Answer: change in proliferation rate between siCON and siPGR-transfected cells (MDA-MB-468 cells): largely blocked; decrease in viability / cells killed (A549 cells): 25%
